From patent publication US20110166348A1, “NOVEL SALT OF MORPHOLINE DERIVATIVE” (ASTELLAS PHARMA INC., priority 2008, published 2011)
Where “and” joins values, the source holds several entries; their conditions need not be identical. Equal values may be shown once. Where a name gives a salt, the structure may show the parent alone. Read-outs that look alike come from different tables or passages of the source. Each block holds one compound with its values, some of them ahead of it.

Key:
[1] = Evaluation of stability (residual ratio of compound A after storage, HPLC-UV); type: physicochemical
Protocol: Evaluation of the decomposed product during storage: Approximately 5 mg of a sample was metered into a 10 mL glass mass flask, and a test was carried out in the following storage conditions.
Condition 1: 40° C.—relative humidity 75%—opening—3 months
Condition 2: 70° C.—light shielding—sealing—2 weeks
Condition 3: 25° C.—D65 (1000 lux)—sealing—2 weeks
A dissolution solvent was filled to a marked line in a mess flask including the sample after storage, the dissolved solution was taken as a sample solution, and the compound A in the sample solution was quantified. Furthermore, the detection of the compound A was carried out with UV at 254 nm and the handling of the devices including data processing was conducted in accordance to the methods and procedures as indicated in each device. (Device: LC-1100 Series manufactured by Agilent).
Further, the quantitative value indicates the residual ratio of the compound A after the test to the compound A before the test.

[2] = Evaluation of hygroscopicity (dynamic steam adsorption/desorption); type: physicochemical
Protocol: Approximately 10 mg of a sample was placed in an exclusively-used quartz-made holder and measured under the conditions of a temperature: 25° C., a measurement range: relative humidity 5 to 95%, a measurement interval: relative humidity 5%. Furthermore, the handling of the devices including data processing was conducted in accordance to the methods and procedures as indicated in each device. (Device: dynamic steam adsorption/desorption measuring device SGA-100, manufactured by VTI).
Measuring temperature: 25° C.; drying before measurement: not done; humidity at the beginning: 5% RH; maximum humidity: 95% RH; humidity at the end: 5% RH; step: 5% RH; equilibrium standard: 0.03 wt % in 5 min; maximum equilibrated time: 180 min; sampling interval: 20 sec; data recording interval: 1 min

[3] = cited from earlier work
[4] = test system: L5/L6 spinal nerve ligation models; assay: L5/L6 spinal nerve ligation model of neuropathic pain, von Frey Test; type: in vivo, male SD rats
Protocol: The evaluation of an analgesic effect on neuropathic pain was performed according to the method of Kim et al. using L5/L6 spinal nerve ligation models. That is, the left L5 and L6 […] nerves of male SD rats were tightly ligated with a silk thread under pentobarbital anesthesia, and thereafter, the evaluation was performed. As the assessment of pain behavior, a von Frey Test on the plantar surface of the animals was employed (Pain, 1992, Vol. 50, p. 355-363). That is, the plantar surface of the operated limb of the nerve ligation rat was stimulated by using von Frey filaments until a withdrawal response was observed, and the lowest amount of force (g) required to elicit withdrawal response was defined as a pain threshold. The evaluation of compounds was performed in a period between 7 and 14 days after the operation in which a decrease in the threshold was stably observed. On the previous day of the evaluation of compounds, a von Frey Test was performed and the rats were grouped so as to minimize the variation in the mean value of pain threshold. Each of a solvent (vehicle) and a diluted solution obtained by diluting compound A hydrochloride as a compound A with a solvent so as to give a dose of 30 mg/kg was orally administered to rats in each group. Distilled water was used as a solvent. A pain threshold was measured at 1 hour after administration. […]

[5] = 25° C., relative humidity 5 to 95%
[6] = Condition 1: 40° C., relative humidity 75%, opening, 3 months
[7] = Condition 2: 70° C., light shielding, sealing, 2 weeks
[8] = Condition 3: 25° C., D65 (1000 lux), sealing, 2 weeks

Structure (SMILES): C1=Cc2cccc(OC[C@H]3CNCCO3)c2C1.O=S(=O)(O)c1ccccc1 [Benzenesulfonate (β)]
Quantitative Values (%) (residual ratio of the compound A) [1]: 95% and 84% and 74%
Weight change(%) [2, 5]: 1.2%

Structure (SMILES): Br.C1=Cc2cccc(OC[C@H]3CNCCO3)c2C1 [Hydrobromide (α)]
Quantitative Values (%) (residual ratio of the compound A) [1, 6]: 98%
Quantitative Values (%) (residual ratio of the compound A) [1, 7]: 97%
Quantitative Values (%) (residual ratio of the compound A) [1, 8]: 69%
Weight change(%) [2, 5]: 12.5%

Structure (SMILES): C1=Cc2cccc(OC[C@H]3CNCCO3)c2C1.O=S(=O)(O)c1ccccc1 [Benzenesulfonate (α), (R)-2-[(1H-inden-7-yloxy)methyl]morpholine benzenesulfonate]
Quantitative Values (%) (residual ratio of the compound A) ([1]; benzenesulfonate): 101% and 100% and 94%
Weight change(%) [2, 5]: <0.1%

Structure (SMILES): C1=Cc2cccc(OC[C@H]3CNCCO3)c2C1.O=S(=O)(O)c1ccccc1 [benzenesulfonate]
Weight change(%) [2]: substantially no weight change

Structure (SMILES): C1=Cc2cccc(OCC3CNCCO3)c2C1.Cl (racemic) [Indeloxazine hydrochloride]
Stability under normal conditions ([3]; room temperature, tightly closed, light shielding, 36 months): stable
Weight increase by hygroscopicity ([3]; stored at relative humidity 93% for 14 days at around room temperature): substantially no weight increase

Quantitative Values (%) (residual ratio of the compound A) [1, 6]: 55%
Quantitative Values (%) (residual ratio of the compound A) [1, 7]: 100%
Quantitative Values (%) (residual ratio of the compound A) [1, 8]: 52%
Relative humidity from which remarkably hygroscopic ([2]; 25° C., FIG. 1): around 75%
Deliquescence accompanying weight change [2, 5]: accompanied by deliquescence
Weight change(%) [2, 5]: 48.5 (accompanied %
Weight change(%) ([2]; 25° C., relative humidity 5 to 95%, listed as hydrochloride of the compound A): 50%
Relative humidity at which deliquescent ([2]; room temperature): approximately 75%
Structure (SMILES): C1=Cc2cccc(OCC3CNCCO3)c2C1 (single isomer, unassigned; (+)) [Hydrochloride, (+)-2-[(inden-7-yloxy)methyl]morpholine]
Effect on pain threshold of operated side paw ([4]; 30 mg/kg orally): improved the pain threshold in the operated side of paw to the same level as that in the normal paw
% Effect (recovery ratio of pain threshold) ([4]; 30 mg/kg, p.o., 1 hour after administration, mean ± SEM, normal side paw 100%, operated side paw 0%): 94.5 ± 17.0 %
